{"source": "paper PMC9609714", "about": "“Exploring Novel Pyridine Carboxamide Derivatives as Urease Inhibitors: Synthesis, Molecular Docking, Kinetic Studies and ADME Profile” (Pharmaceuticals, 2022)", "key": {"urease [1]": {"molecular_target": "T1, urease (Canavalia ensiformis, UniProt P07374)", "T1 sequence (P07374 whole entry, looked up)": "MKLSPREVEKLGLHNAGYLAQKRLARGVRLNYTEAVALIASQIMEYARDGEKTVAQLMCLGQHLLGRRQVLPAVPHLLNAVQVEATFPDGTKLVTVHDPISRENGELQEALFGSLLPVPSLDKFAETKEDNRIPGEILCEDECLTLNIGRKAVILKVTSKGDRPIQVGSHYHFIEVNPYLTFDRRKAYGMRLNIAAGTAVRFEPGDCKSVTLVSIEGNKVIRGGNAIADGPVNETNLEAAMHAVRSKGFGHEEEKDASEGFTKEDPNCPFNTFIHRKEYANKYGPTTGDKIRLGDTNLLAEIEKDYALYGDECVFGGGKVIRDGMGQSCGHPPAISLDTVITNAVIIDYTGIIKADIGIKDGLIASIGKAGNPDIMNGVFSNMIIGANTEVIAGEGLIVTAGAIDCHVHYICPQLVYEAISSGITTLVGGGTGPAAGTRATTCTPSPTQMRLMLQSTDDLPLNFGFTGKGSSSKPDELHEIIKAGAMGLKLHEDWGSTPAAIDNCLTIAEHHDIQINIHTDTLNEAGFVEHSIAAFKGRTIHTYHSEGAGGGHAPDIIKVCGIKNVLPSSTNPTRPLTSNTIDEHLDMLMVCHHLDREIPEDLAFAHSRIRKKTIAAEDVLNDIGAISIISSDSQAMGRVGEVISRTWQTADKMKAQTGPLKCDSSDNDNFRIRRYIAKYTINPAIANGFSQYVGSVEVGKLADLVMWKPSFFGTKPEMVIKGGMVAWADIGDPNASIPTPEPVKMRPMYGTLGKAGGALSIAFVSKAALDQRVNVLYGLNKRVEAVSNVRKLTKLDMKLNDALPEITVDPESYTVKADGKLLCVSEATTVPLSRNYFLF", "experiment": "biochemical", "experimental": "The indophenol method was adopted for the estimation of urease inhibition activity for synthesized compounds with minor modification. In the assay, the total volume was kept at 100 µL which was composed of 10 µL urease having a concentration of 5 U/mL, 40 µL of phosphate buffer (0.01mM K2HPO4+ EDTA + […]); pH was adjusted to 8.15 using 40 µL of phenol reagent (1%, phenol, and sodium nitroprusside) and alkali reagent. This alkali reagent was composed of 0.5% of sodium hydroxide and 0.1% of active chloride (NaOCl). For the determination of urease activity, the test compound and enzyme were incubated for 30 min at 37 °C in the assay buffer; then phenol/alkali reagent was added. All reactions were performed in 96 well plates in a triplicate manner. Absorbance was measured at a wavelength of 625 nm using the instrument FLUOstar® Omega (BMG LABTECH, Ortenberg, Germany). Initially, the percentage inhibition was estimated for the test compounds and compared with a standard inhibitor of urease (thioureas). […] GraphPad (PRISM 8.0, San Diego, CA, USA) was utilized for the calculations of IC50 values. The synthesized compounds were dissolved in absolute ethanol for the percentage inhibition assay whereas dilutions were prepared in deionized water by keeping the final concentration at up to 1%. The standard inhibitor (thioureas) was used as a positive control in the assay whereas 1% ethanol was employed as a negative control during the assay."}, "urease [2]": {"molecular_target": "T1, urease", "experiment": "Enzyme kinetics study (Lineweaver–Burk plot) of urease inhibition", "format": "biochemical", "conditions": "compound 0.10-1.6 µM", "text": "By calculating the Lineweaver–Burk plot, the competitive mode of inhibition was shown by the compound Rx-6."}}, "note": "Read-outs that look alike come from different tables or passages of the source."}
{"smiles": "N/C(S)=N/N=C/c1ccccn1", "note": "[Rx-1, Pyridine-2-yl-methylene thiosemicarbazide]", "values": [{"measurement": "IC50", "setting": "urease [1]", "result": "3.23 ± 0.015", "unit": "µM"}]}
{"smiles": "Cc1cccc(/C=N/NC(N)=S)n1", "note": "[Rx-2, 6-Methylpyridine-2-yl methylene hydrazine-1-carbothioamide]", "values": [{"measurement": "IC50", "setting": "urease [1]", "result": "6.41 ± 0.023", "unit": "µM"}]}
{"smiles": "NC(=S)N/N=C/c1cccc(Br)n1", "note": "[Rx-3, 6-Bromopyridine-2-yl methylene hydrazine-1-carbothioamide]", "values": [{"measurement": "IC50", "setting": "urease [1]", "result": "3.13 ± 0.034", "unit": "µM"}, {"measurement": "melting point", "result": "192 to 194", "unit": "°C"}]}
{"smiles": "COc1cccc(/C=N/NC(N)=S)n1", "note": "[Rx-4, 6-Methoxypyridine-2-yl methylene thiosemicarbazide]", "values": [{"measurement": "IC50", "setting": "urease [1]", "result": "4.21 ± 0.022", "unit": "µM"}]}
{"smiles": "NC(=S)N/N=C/c1cccc(C(F)(F)F)n1", "note": "[Rx-5, 6-Trifluoromethyl pyridine-2-yl methylene hydrazine-1-carbothioamide]", "values": [{"measurement": "IC50", "setting": "urease [1]", "result": "4.93 ± 0.012", "unit": "µM"}]}
{"smiles": "NC(=S)N/N=C/c1ccc(Cl)cn1", "note": "[Rx-6, 5-Chloropyridine-2-yl methylene hydrazinecarbothioamide]", "values": [{"measurement": "IC50", "setting": "urease [1]", "result": "1.07 ± 0.043", "unit": "µM"}, {"measurement": "mode of inhibition (Lineweaver–Burk plot)", "setting": "urease [2]", "result": "competitive"}, {"measurement": "melting point", "result": "244 to 246", "unit": "°C"}]}
{"smiles": "NC(=O)N/N=C/c1ccccn1", "note": "[Rx-7, 2-Pyridine-2-yl-methylene hydrazine carboxamide]", "values": [{"measurement": "IC50", "setting": "urease [1]", "result": "2.18 ± 0.058", "unit": "µM"}]}
{"smiles": "Cc1cccc(/C=N/NC(N)=O)n1", "note": "[Rx-8, 6-Methylpyridine-2-yl methylene hydrazinecarboxamide]", "values": [{"measurement": "IC50", "setting": "urease [1]", "result": "3.41 ± 0.011", "unit": "µM"}, {"measurement": "melting point", "result": "218 to 219", "unit": "°C"}]}
{"smiles": "NC(=O)N/N=C/c1cccc(Br)n1", "note": "[Rx-9, 6-Bromopyridine-2-yl methylene hydrazinecarboxamide]", "values": [{"measurement": "IC50", "setting": "urease [1]", "result": "14.49 ± 0.067", "unit": "µM"}, {"measurement": "melting point", "result": "231 to 233", "unit": "°C"}]}
{"smiles": "COc1cccc(/C=N/NC(N)=O)n1", "note": "[Rx-10, 6-Methoxypyridine-2-yl methylene hydrazine carboxamide]", "values": [{"measurement": "IC50", "setting": "urease [1]", "result": "5.52 ± 0.072", "unit": "µM"}, {"measurement": "melting point", "result": 193, "unit": "°C"}]}
{"smiles": "NC(=O)N/N=C/c1cccc(C(F)(F)F)n1", "note": "[Rx-11, 6-Trifluoromethyl pyridine-2-yl methylene hydrazine carboxamide]", "values": [{"measurement": "IC50", "setting": "urease [1]", "result": "5.96 ± 0.005", "unit": "µM"}, {"measurement": "melting point", "result": "233 to 235", "unit": "°C"}]}
{"smiles": "NC(=O)N/N=C/c1ccc(Cl)cn1", "note": "[Rx-12, 5-Chloropyridine-2yl-methylene hydrazine carboxamide]", "values": [{"measurement": "IC50", "setting": "urease [1]", "result": "4.07 ± 0.003", "unit": "µM"}, {"measurement": "melting point", "result": "221 to 223", "unit": "°C"}]}
{"smiles": "NC(N)=S", "note": "[Thiourea, reference compound]", "values": [{"measurement": "IC50", "setting": "urease [1]; urease 5 U/mL, 30 min at 37 °C, pH 8.15, triplicate, read-out: IC50 ± SEM", "result": "18.93 ± 0.004", "unit": "µM"}]}
